How the values were obtained:
D(2) dopamine receptor = D(2) dopamine receptor (Rattus norvegicus, UniProt P61169); test: The affinity for the Dopamine receptor D2 was assessed by the inhibition of [3H]-spiperone binding in rat striatal membranes in vitro.; type: cell membranes, Membrane
Rattus norvegicus [1] = test: Hyperactivity by regression analysis, through intraperitoneal route of administration; type: functional; conditions: ip
Rattus norvegicus [2] = test: Stereotypies was scored by regression analysis, through intraperitoneal route of administration; type: functional; conditions: ip

Chain of D(2) dopamine receptor (P61169 whole entry): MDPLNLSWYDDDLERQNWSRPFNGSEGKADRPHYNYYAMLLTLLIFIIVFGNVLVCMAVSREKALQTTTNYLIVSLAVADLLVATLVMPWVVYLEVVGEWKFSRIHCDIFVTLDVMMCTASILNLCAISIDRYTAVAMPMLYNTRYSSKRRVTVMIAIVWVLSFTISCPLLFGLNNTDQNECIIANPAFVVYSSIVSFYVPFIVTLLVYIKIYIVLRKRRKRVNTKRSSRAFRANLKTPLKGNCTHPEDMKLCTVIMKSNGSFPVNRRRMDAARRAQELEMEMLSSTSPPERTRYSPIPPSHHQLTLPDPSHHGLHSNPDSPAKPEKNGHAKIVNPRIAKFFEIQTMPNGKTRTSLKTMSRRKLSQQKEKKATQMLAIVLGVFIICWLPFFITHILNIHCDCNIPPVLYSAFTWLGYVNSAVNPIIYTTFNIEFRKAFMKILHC

Structure (SMILES) | IC50 (D(2) dopamine receptor) [nM] | ED50 (Rattus norvegicus [1]) [µmol/kg] | ED50 (Rattus norvegicus [2]) [µmol/kg]
CCN1CCCC1CNC(=O)c1cc(Br)cc(OC)c1O (stereo unspecified) | 8210 |  | 
CCN1CCC[C@H]1CNC(=O)c1cc(Br)cc2c1OCC2 |  | 2 | 4.7
CCN1CCC[C@H]1CNC(=O)c1c(O)c(Cl)cc(Cl)c1OC [RACLOPRIDE] |  | 0.13 | 1.8
CCN1CCC[C@H]1CNC(=O)c1c(OC)ccc(Br)c1O |  | 0.054 | 0.32
CCN1CCC[C@H]1CNC(=O)c1c(O)c(Br)cc(OC)c1OC |  | 0.009 | 0.049
COc1cccc(C(=O)NC2CC3CCC(C2)N3Cc2ccccc2)c1OC (stereo unspecified) | 1.7 | 0.016 | 0.043

Further lines, with some results ahead:

IC50 (D(2) dopamine receptor) [nM] | Structure (SMILES) | ED50 (Rattus norvegicus [1]) [µmol/kg] | ED50 (Rattus norvegicus [2]) [µmol/kg]
5 | COc1cc(Br)cc(C(=O)NC2CCN(Cc3ccccc3)CC2)c1OC | 0.28 | 0.24
52 | CCN1CCCC1CNC(=O)c1cccc(OC)c1OC (stereo unspecified) | ~10 | ~10
1.2 | CCN1CCC[C@H]1CNC(=O)c1cc(Br)cc(OC)c1OC | 0.002 | 0.14
46 | CCN1CCC[C@H]1CNC(=O)c1cc(Br)cc2c1OCCO2 | 3.8 | 12.8
10 | CCN1CCCC1CNC(=O)c1cc(Br)cc(O)c1OC (stereo unspecified) | 1.2 | 2.1
44 | CCN1CCCC1CNC(=O)c1cc(Br)c(OC)cc1OC (stereo unspecified) | 3.2 | 10.7
46 | CCN1CCCC1CNC(=O)c1cc(Br)ccc1OC (stereo unspecified) | 3 | 6.7
145 | CCN1CCC[C@@H]1CNC(=O)c1cc(Br)cc(OC)c1OC | > 20 | > 20

— ChEMBL document CHEMBL1124888 (J Med Chem, 1990)
